# Test results reported in paper PMC9847679, “The anti-breast cancer stem cell properties of gold(I)-non-steroidal anti-inflammatory drug complexes” (Chemical Science, 2022).
# Experiments:
# HMLER cells = experiment: Monolayer cytotoxicity (MTT assay), HMLER cells; type: cell-based, human; conditions: 72 h incubation, MTT
# Excerpt: (§1) Cell Lines and Cell Culture Conditions. The human mammary epithelial HMLER and HMLER-shEcad cell lines were kindly donated by Prof. R. A. Weinberg (Whitehead Institute, MIT). The human epithelial breast MCF10A, breast adenocarcinoma MDA-MB-231 and MDA-MB-468, murine epithelial breast 4T1, and embryonic kidney HEK 293 cell lines were acquired from American Type Culture Collection (ATCC, Manassas, VA, USA).
# (§2) HMLER, HMLER-shEcad, and MCF10A cells were maintained in Mammary Epithelial Cell Growth Medium (MEGM) with supplements and growth factors (BPE, hydrocortisone, hEGF, insulin, and gentamicin/amphotericin-B). MDA-MB-231, MDA-MB-468, 4T1, and HEK 293 cells were maintained in Dulbecco's Modified Eagle's Medium (DMEM) supplemented with fetal bovine serum (10 %) and penicillin/streptomycin (1 %). The cells were grown at 310 K in a humidified atmosphere containing 5% CO2.
# (§3) Monolayer Cytotoxicity Studies. Exponentially growing cells were seeded at a density of approximately 5 × 10^3 cells per well in 96-well flat-bottomed microplates and allowed to attach for 24 h prior to addition of compounds. Various concentrations of the test compounds (0.0004-100 μM) were added and incubated for 72 h at 37 °C (total volume 200 μl). Stock solutions of the compounds were prepared as 10 mM DMSO solutions and diluted using cell […]
# (§4) media. The final concentration of DMSO in each well was ≤1 %. After 72 h, 20 μl of MTT (4 mg mL-1 in PBS) was added to each well and the plates incubated for an additional 4 h at 37 °C. The media/MTT mixture was eliminated and DMSO (100 μl per well) was added to dissolve the formazan precipitates. The optical density was measured at 550 nm using a 96-well multiscanner autoreader. Absorbance values were normalised to (DMSO-containing) control wells and plotted as concentration of test compound versus % cell viability. IC50 values were interpolated from the resulting dose dependent curves. The reported IC50 values are the average of three independent experiments (n = 18). […]
# (§5) After incubation for 16 […]
# (§6) h, the fluorescence of the solutions was read at 590 nm (λex = 560 nm). Viable mammospheres reduce the amount of the oxidised TOX8 form (blue) and concurrently increase the amount of the fluorescent TOX8 intermediate (red), indicating the degree of mammosphere cytotoxicity caused by the test compound. […]
# (§7) Cellular Uptake. To measure the cellular uptake of 1-3 about 1 million HMLER-shEcad cells were treated with 1-3 (0.25 μM) at 37 °C for 24 h. After incubation, the media was removed, the cells were washed with PBS (2 mL × 3) and harvested. The number of cells was counted at this stage, using a haemocytometer. This mitigates any cell death induced by 1-3 at the administered concentration and experimental cell loss. The cellular pellets were dissolved in 65% HNO3 (250 µL) overnight. A cellular pellet of HMLER-shEcad cells treated with 1 was also used to determine the gold content in the nuclear, cytoplasmic and membrane fractions. The Thermo Scientific NE-PER Nuclear and Cytoplasmic Extraction Kit was used to extract and separate the nuclear, cytoplasmic and membrane fractions. The fractions were dissolved in 65% HNO3 (250 µL final volume) overnight. All samples were diluted 17-fold with water and analysed using inductively coupled plasma mass spectrometry (ICP-MS, Thermo Scientific ICAP-Qc quadrupole ICP mass spectrometer). Gold levels are expressed as mass of Au (ng) per million cells. Results are presented as the mean of four determinations for each data point.
# (§8) Intracellular ROS Assay. […]
# HMLER-shEcad cells [1] = experiment: Monolayer cytotoxicity (MTT assay), HMLER-shEcad cells; type: cell-based, human; conditions: 72 h incubation, MTT
# Excerpt: as §1, §2, §3, §4, §5, §6, §7, §8
# HEK 293 cells = experiment: Monolayer cytotoxicity (MTT assay), HEK 293 cells; type: cell-based; conditions: 72 h incubation
# Excerpt: as §1, §2
# Monolayer Cytotoxicity Studies. Exponentially growing cells were seeded at a density of approximately 5 × 10^3 cells per well in 96-well flat-bottomed microplates and allowed to attach for 24 h prior to addition of compounds. […]
# media. […] The optical density was measured at 550 nm using a 96-well multiscanner autoreader. Absorbance values were normalised to (DMSO-containing) control wells and plotted as concentration of test compound versus % cell viability. […]
# HMLER-shEcad cells [2] = experiment: Intracellular ROS assay (DCFH-DA, flow cytometry); type: cell-based, human; conditions: 0.4 μM
# Method: media. The final concentration of DMSO in each well was ≤1 %. After 72 h, 20 μl of MTT (4 mg mL-1 in PBS) was added to each well and the plates incubated for an additional 4 h at 37 °C. The media/MTT mixture was eliminated and DMSO (100 μl per well) was added to dissolve the formazan precipitates. The optical density was measured at 550 nm using a 96-well multiscanner autoreader. Absorbance values were normalised to (DMSO-containing) control wells and plotted as concentration of test compound versus % cell viability. IC50 values were interpolated from the resulting dose dependent curves. The reported IC50 values are the average of three independent experiments (n = 18).
# Tumorsphere Formation and Viability Assay. […] Mammospheres treated with 1-3, 5-fluorouracil, capecitabine, cisplatin, carboplatin, and salinomycin (at their respective IC20 values, 5 days) were counted and imaged using an inverted microscope. The viability of the mammospheres was determined by addition of a resazurin-based reagent, TOX8 (Sigma). After incubation for 16 h, the fluorescence of the solutions was read at 590 nm (λex = 560 nm). […] Fluorescence values were normalised to DMSO-containing controls and plotted as concentration of test compound versus % mammospheres viability. […]
# Cellular Uptake. […] The number of cells was counted at this stage, using a haemocytometer. […] Gold levels are expressed as mass of Au (ng) per million cells. […]
smiles,measurement,setting,value
COc1ccc2c(c1)c(CC(=O)[O][Au][PH](c1ccccc1)(c1ccccc1)c1ccccc1)c(C)n2C(=O)c1ccc(Cl)cc1 [complex 1],IC50,HMLER cells,190 ± 10 nM
same,IC50,HMLER-shEcad cells [1],56 ± 1 nM
same,IC50,HEK 293 cells,1920 ± 230 nM
same,increase in intracellular ROS levels,HMLER-shEcad cells [2]; 6 h exposure (peak),104%
same,increase in intracellular ROS levels,HMLER-shEcad cells [2]; prolonged (16–24 h) exposure,statistically insignificant increases in ROS levels
